In US20260355332A1, “ANTIBODY-DRUG CONJUGATE, AND PREPARATION METHOD THEREFOR AND USE THEREOF” (MEDILINK THERAPEUTICS (SUZHOU) CO., LTD., priority 2022, published 2026):
Entries after “also recorded” stand apart in the source; their conditions may differ.

System: tumor cells
Test: Assay 2: inhibitory activity of bioactive molecules on tumor cells (CCK8), overall
Format: cell-based
Settings: Example 6.2; multiple tumor cell lines
Description: Firstly, tumor cells NUCG-4, PC-9, HT29, NCI-H358, KYSE520, A431, and A549 were cultured. The bioactive molecules or fragments of the present disclosure were co-cultured with the tumor cells, and then a CCK8 reagent (Dojindo China Co., Ltd., Cat: CKO4, Lot: JJ744) was added. Readings were taken using a microplate reader (manufacturer: Molecular Devices, model: SpectraMax M2) (detection wavelength: 450 nm) to determine the activity of dehydrogenase in the mitochondria, so as to evaluate the inhibitory effects of the bioactive molecules on cell proliferation.
The in vitro cell activity was assayed as follows: Tumor cells were digested by a conventional method using trypsin, collected in a tube, counted, resuspended in the corresponding assay medium (containing 2% FBS), and added to a 96-well plate at 5000-10000 cells/well. Bioactive molecules diluted with DMSO (starting at a concentration of 10 μM, with a 3-fold dilution (12 concentration gradients)) were added to the 96-well plate at 100 μL/well, and the plate was incubated at 37° C. with 5% CO2 for 3-4 days. Subsequently, 20 μL of CCK8 reagent was added to each well, and the mixture was allowed to react for 2-6 h. Readings were then taken using a microplate reader (detection wavelength: 450 nm).

Compound | tumor cell-killing effect (in words)
CC[C@@]1(O)C(=O)OCc2c1cc1n(c2=O)Cc2c-1nc1cc3c(cc1c2CCCOCNC(=O)CN)OCO3 [Example B1.14, (S)-2-amino-N-((3-(7-ethyl-7-hydroxy-8,11-dioxo-7,8,11,13-tetrahydro-10H-[1,3]dioxolo[4,5-g]pyrano[3′,4′:6,7]indolizino[1,2-b]quinolin-14-yl)propoxy)methyl)acetamide] | had tumor cell-killing effects
CC[C@@]1(O)C(=O)OCc2c1cc1n(c2=O)Cc2c-1nc1cc3c(cc1c2CCCO)OCO3 [Example A1.9, (S)-7-ethyl-7-hydroxy-14-(3-hydroxypropyl)-10,13-dihydro-11H-[1,3]dioxolo[4,5-g]pyrano[3′,4′:6,7]indolizino[1,2-b]quinoline-8,11(7H)-dione] | had tumor cell-killing effects; also recorded: stronger tumor-killing effect than Dxd in multiple tumor cell lines
